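Growth conditions: 96-well plates. Treatment: test compound, 48 hours, 5 concentrations. Analysis: linear interpolation between bracketing concentrations; unreached endpoints set to highest concentration. TGI: total growth inhibition.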
Legend:
Assay in all cases: NCI tumour cell line growth inhibition, 48 h
MALME-3M melanoma = system: MALME-3M melanoma
SNB-75 CNS = system: SNB-75 CNS
TK-10 renal = system: TK-10 renal
UO-31 renal = system: UO-31 renal
NCI-H23 lung = system: NCI-H23 lung
MDA-MB-231 breast = system: MDA-MB-231 breast
SK-MEL-2 melanoma = system: SK-MEL-2 melanoma
HCC-2998 colon = system: HCC-2998 colon
SW-620 colon = system: SW-620 colon
OVCAR-3 ovarian = system: OVCAR-3 ovarian
HOP-92 NSCLC = system: HOP-92 NSCLC
M14 melanoma = system: M14 melanoma
PC-3 prostate = system: PC-3 prostate
SK-MEL-28 melanoma = system: SK-MEL-28 melanoma
RPMI-8226 leukemia = system: RPMI-8226 leukemia
IGROV1 ovarian = system: IGROV1 ovarian
HCT-15 colon = system: HCT-15 colon
OVCAR-4 ovarian = system: OVCAR-4 ovarian
SNB-19 CNS = system: SNB-19 CNS
A549 NSCLC = system: A549 NSCLC
ACHN renal = system: ACHN renal
MOLT-4 leukemia = system: MOLT-4 leukemia
CAKI-1 renal = system: CAKI-1 renal
HL-60(TB) leukemia = system: HL-60(TB) leukemia
NCI-H522 lung = system: NCI-H522 lung
U251 CNS = system: U251 CNS
HS 578T breast = system: HS 578T breast
OVCAR-5 ovarian = system: OVCAR-5 ovarian
MDA-N = system: MDA-N
NCI/ADR-RES ovarian = system: NCI/ADR-RES ovarian
SN12C renal = system: SN12C renal
UACC-257 melanoma = system: UACC-257 melanoma
OVCAR-8 ovarian = system: OVCAR-8 ovarian
K-562 leukemia = system: K-562 leukemia
T-47D breast = system: T-47D breast
BT-549 breast = system: BT-549 breast
A498 renal = system: A498 renal
NCI-H460 lung = system: NCI-H460 lung
MDA-MB-435 = system: MDA-MB-435
HT29 colon = system: HT29 colon
SF-268 CNS = system: SF-268 CNS
DU-145 prostate = system: DU-145 prostate
COLO 205 colon = system: COLO 205 colon
EKVX NSCLC = system: EKVX NSCLC
SK-MEL-5 melanoma = system: SK-MEL-5 melanoma
HOP-62 NSCLC = system: HOP-62 NSCLC
NCI-H226 lung = system: NCI-H226 lung
MCF7 breast = system: MCF7 breast
SF-295 CNS = system: SF-295 CNS
CCRF-CEM leukemia = system: CCRF-CEM leukemia
SK-OV-3 ovarian = system: SK-OV-3 ovarian
LOX IMVI melanoma = system: LOX IMVI melanoma
KM12 colon = system: KM12 colon
HCT-116 colon = system: HCT-116 colon
SF-539 CNS = system: SF-539 CNS
786-0 renal = system: 786-0 renal
UACC-62 melanoma = system: UACC-62 melanoma
SR leukemia = system: SR leukemia
RXF 393 renal = system: RXF 393 renal

COC(=O)/C=C\n1ncc(=O)[nH]c1=O
TGI (MALME-3M melanoma): > 100 µM | TGI (SNB-75 CNS): > 100 µM | TGI (TK-10 renal): > 100 µM | TGI (UO-31 renal): > 100 µM | TGI (NCI-H23 lung): > 100 µM | TGI (MDA-MB-231 breast): > 100 µM | TGI (SK-MEL-2 melanoma): > 100 µM | TGI (HCC-2998 colon): > 100 µM | TGI (SW-620 colon): > 100 µM | TGI (OVCAR-3 ovarian): > 100 µM | TGI (HOP-92 NSCLC): > 100 µM | TGI (M14 melanoma): > 100 µM | TGI (PC-3 prostate): > 100 µM | TGI (SK-MEL-28 melanoma): > 100 µM | TGI (RPMI-8226 leukemia): > 100 µM | TGI (IGROV1 ovarian): > 100 µM | TGI (HCT-15 colon): > 100 µM | TGI (OVCAR-4 ovarian): > 100 µM | TGI (SNB-19 CNS): > 100 µM | TGI (A549 NSCLC): > 100 µM | TGI (ACHN renal): > 100 µM | TGI (MOLT-4 leukemia): > 100 µM | TGI (CAKI-1 renal): > 100 µM | TGI (HL-60(TB) leukemia): > 100 µM | TGI (NCI-H522 lung): > 100 µM | TGI (U251 CNS): > 100 µM | TGI (HS 578T breast): > 100 µM | TGI (OVCAR-5 ovarian): > 100 µM | TGI (MDA-N): > 100 µM | TGI (NCI/ADR-RES ovarian): > 100 µM | TGI (SN12C renal): > 100 µM | TGI (UACC-257 melanoma): > 100 µM | TGI (OVCAR-8 ovarian): > 100 µM | TGI (K-562 leukemia): > 100 µM | TGI (T-47D breast): > 100 µM | TGI (BT-549 breast): > 100 µM | TGI (A498 renal): > 100 µM | TGI (NCI-H460 lung): > 100 µM | TGI (MDA-MB-435): > 100 µM | TGI (HT29 colon): > 100 µM | TGI (SF-268 CNS): > 100 µM | TGI (DU-145 prostate): > 100 µM | TGI (COLO 205 colon): > 100 µM | TGI (EKVX NSCLC): > 100 µM | TGI (SK-MEL-5 melanoma): > 100 µM | TGI (HOP-62 NSCLC): > 100 µM | TGI (NCI-H226 lung): > 100 µM

CC(C)=CCC[C@@H](C)C1=C(O)C(c2c(I)c(=O)n(C)c(=O)n2C)=C(C)C(=O)C1=O
TGI (MALME-3M melanoma): > 100 µM | TGI (MCF7 breast): > 100 µM | TGI (SNB-75 CNS): > 100 µM | TGI (TK-10 renal): > 100 µM | TGI (UO-31 renal): > 100 µM | TGI (SF-295 CNS): > 100 µM | TGI (CCRF-CEM leukemia): > 100 µM | TGI (SK-OV-3 ovarian): > 100 µM | TGI (NCI-H23 lung): > 100 µM | TGI (SK-MEL-2 melanoma): > 100 µM | TGI (HCC-2998 colon): > 100 µM | TGI (SW-620 colon): > 100 µM | TGI (OVCAR-3 ovarian): > 100 µM | TGI (HOP-92 NSCLC): > 100 µM | TGI (M14 melanoma): > 100 µM | TGI (PC-3 prostate): > 100 µM | TGI (SK-MEL-28 melanoma): > 100 µM | TGI (LOX IMVI melanoma): > 100 µM | TGI (RPMI-8226 leukemia): > 100 µM | TGI (IGROV1 ovarian): > 100 µM | TGI (HCT-15 colon): > 100 µM | TGI (OVCAR-4 ovarian): > 100 µM | TGI (SNB-19 CNS): > 100 µM | TGI (A549 NSCLC): > 100 µM | TGI (ACHN renal): > 100 µM | TGI (MOLT-4 leukemia): > 100 µM | TGI (CAKI-1 renal): > 100 µM | TGI (HL-60(TB) leukemia): > 100 µM | TGI (HS 578T breast): > 100 µM | TGI (OVCAR-5 ovarian): > 100 µM | TGI (MDA-N): > 100 µM | TGI (NCI/ADR-RES ovarian): > 100 µM | TGI (SN12C renal): > 100 µM | TGI (UACC-257 melanoma): > 100 µM | TGI (OVCAR-8 ovarian): > 100 µM | TGI (KM12 colon): > 100 µM | TGI (K-562 leukemia): > 100 µM | TGI (T-47D breast): > 100 µM | TGI (BT-549 breast): > 100 µM | TGI (HCT-116 colon): > 100 µM | TGI (A498 renal): > 100 µM | TGI (NCI-H460 lung): > 100 µM | TGI (MDA-MB-435): > 100 µM | TGI (HT29 colon): > 100 µM | TGI (SF-268 CNS): > 100 µM | TGI (DU-145 prostate): > 100 µM | TGI (SF-539 CNS): > 100 µM | TGI (COLO 205 colon): > 100 µM | TGI (EKVX NSCLC): > 100 µM | TGI (HOP-62 NSCLC): > 100 µM | TGI (NCI-H226 lung): > 100 µM | TGI (786-0 renal): > 100 µM

O=c1c2sc3nc(NCCN4CCCCC4)ncc3c2ncn1-c1ccccc1
TGI (MALME-3M melanoma): 58.4 µM | TGI (SNB-75 CNS): > 100 µM | TGI (TK-10 renal): > 100 µM | TGI (UO-31 renal): 49.9 µM | TGI (SF-295 CNS): > 100 µM | TGI (CCRF-CEM leukemia): > 100 µM | TGI (SK-OV-3 ovarian): > 100 µM | TGI (NCI-H23 lung): > 100 µM | TGI (MDA-MB-231 breast): > 100 µM | TGI (SK-MEL-2 melanoma): > 100 µM | TGI (HCC-2998 colon): > 100 µM | TGI (UACC-62 melanoma): > 100 µM | TGI (SW-620 colon): > 100 µM | TGI (OVCAR-3 ovarian): > 100 µM | TGI (HOP-92 NSCLC): 95.5 µM | TGI (M14 melanoma): 39.2 µM | TGI (PC-3 prostate): > 100 µM | TGI (SK-MEL-28 melanoma): > 100 µM | TGI (LOX IMVI melanoma): 41.9 µM | TGI (RPMI-8226 leukemia): > 100 µM | TGI (IGROV1 ovarian): > 100 µM | TGI (HCT-15 colon): > 100 µM | TGI (SR leukemia): > 100 µM | TGI (OVCAR-4 ovarian): > 100 µM | TGI (SNB-19 CNS): > 100 µM | TGI (A549 NSCLC): > 100 µM | TGI (ACHN renal): > 100 µM | TGI (MOLT-4 leukemia): > 100 µM | TGI (CAKI-1 renal): > 100 µM | TGI (NCI-H522 lung): > 100 µM | TGI (U251 CNS): > 100 µM | TGI (HS 578T breast): > 100 µM | TGI (OVCAR-5 ovarian): > 100 µM | TGI (MDA-N): > 100 µM | TGI (NCI/ADR-RES ovarian): > 100 µM | TGI (SN12C renal): > 100 µM | TGI (UACC-257 melanoma): > 100 µM | TGI (OVCAR-8 ovarian): > 100 µM | TGI (KM12 colon): > 100 µM | TGI (K-562 leukemia): > 100 µM | TGI (RXF 393 renal): 84.4 µM | TGI (T-47D breast): > 100 µM | TGI (BT-549 breast): > 100 µM | TGI (HCT-116 colon): > 100 µM | TGI (A498 renal): > 100 µM | TGI (NCI-H460 lung): > 100 µM | TGI (MDA-MB-435): > 100 µM | TGI (HT29 colon): > 100 µM | TGI (SF-268 CNS): > 100 µM | TGI (DU-145 prostate): > 100 µM | TGI (COLO 205 colon): > 100 µM | TGI (SK-MEL-5 melanoma): 36.3 µM | TGI (HOP-62 NSCLC): > 100 µM | TGI (NCI-H226 lung): > 100 µM | TGI (786-0 renal): > 100 µM
